Measured values published in US20130029970A1 (priority 2009, published 2013).

Tests used:
human CB1 receptors = target: T1, human CB1 receptors (Homo sapiens, UniProt P21554); experiment: cAMP assay in HEK-293 cells, hCB1 agonist; format: cell-based; conditions: inhibition of forskolin-stimulated cAMP, HEK-293 cells; for EC50: read-out: hCB1 EC50 (cAMP ag)
T1 construct: (cDNA clone) CNR01L000
Procedure, shortened: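 Stable hCB1 HEK-293 cells suspended in HBSS with 10 mM HEPES and 0.1% fatty acid-free BSA, incubated 30 min at 37° C. with compound plus forskolin (90 uM in the 3× compound solution). Lysed cAMP measured by enzyme-fragment kit; EC50 = 50% inhibition of forskolin-stimulated cAMP (forskolin maximum = 100%), sigmoidal fit.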

[1] = target: T2, recombinant human cannabinoid receptor CB1 (Homo sapiens, UniProt P21554); experiment: Cannabinoid receptor radioligand binding assay, [3H]-CP 55,940 displacement, hCB1
T2 construct: (cDNA clone) CNR01L000
T2 sequence (P21554 whole entry): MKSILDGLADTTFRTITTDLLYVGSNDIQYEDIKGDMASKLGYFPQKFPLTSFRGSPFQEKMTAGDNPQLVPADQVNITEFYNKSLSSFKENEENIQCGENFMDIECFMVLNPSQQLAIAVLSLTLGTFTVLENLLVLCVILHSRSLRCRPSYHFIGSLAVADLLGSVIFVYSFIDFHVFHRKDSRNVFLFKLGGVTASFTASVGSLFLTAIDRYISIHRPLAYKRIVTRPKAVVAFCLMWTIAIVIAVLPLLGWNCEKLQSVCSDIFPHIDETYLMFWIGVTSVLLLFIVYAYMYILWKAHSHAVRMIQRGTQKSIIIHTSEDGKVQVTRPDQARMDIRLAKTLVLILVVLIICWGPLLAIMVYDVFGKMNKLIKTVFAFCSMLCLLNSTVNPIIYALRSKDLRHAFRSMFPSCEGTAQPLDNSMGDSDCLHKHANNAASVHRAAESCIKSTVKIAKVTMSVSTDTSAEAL
Procedure, shortened: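 Membranes from HEK-293 cells stably expressing human CB1, 2-10 μg protein, incubated 90 min at room temperature with 0.5 nM [3H]-CP 55,940 in Tris-HCl pH 7.5, MgCl2, EDTA and 0.1% fatty-acid-free BSA. Bound radioactivity counted after rapid filtration; nonspecific binding defined with 1 μM unlabeled CP 55,940.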

human CB1 (hCB1) = target: T3, human CB1 (hCB1) (Homo sapiens, UniProt P21554); experiment: 35S GTPγS binding assay, hCB1 agonist; format: biochemical; conditions: GTPγS agonist, HEK-293 membranes; read-out: hCB1 EC50 (GTPyS ag)
T3 construct: (cDNA clone) CNR01L000
T3 sequence (P21554 whole entry): as above

T1 sequence (P21554 whole entry): as above

Row | Structure (SMILES) | hCB1 EC50 (cAMP ag, nM) (human CB1 receptors) | IC50 [1] [µM] | EC50 (human CB1 (hCB1)) [µM] | EC50 (human CB1 receptors) [µM]
1 | Cc1cc2cc(C(=O)c3cc(Cl)ccc3Cl)sc2n1CCN1CCOCC1 [Compound 35, (2,5-Dichlorophenyl)(5-methyl-6-(2-morpholinoethyl)-6H-thieno[2,3-b]pyrrol-2-yl)methanone] | NS (NS means “Not Significant,” which means less than 30% agonist activity when compared to the positive control.) | 0.1 to 1 | 0.1 to 1 | –
2 | COc1ccc(C(=O)c2cc3cc(C)n(CCCNC(=O)C(F)(F)F)c3s2)cc1 [Compound 76, 2,2,2-Trifluoro-N-(3-(2-(4-methoxybenzoyl)-5-methyl-6H-thieno[2,3-b]pyrrol-6-yl)propyl)acetamide] | NS (NS means “Not Significant,” which means less than 30% agonist activity when compared to the positive control.) | 1 to 10 | < 0.1 | –
3 | COc1ccc(C(=O)c2cc3cc(C)n(CCC(C)(C)O)c3s2)cc1 [Compound 77, (6-(3-Hydroxy-3-methylbutyl)-5-methyl-6H-thieno[2,3-b]pyrrol-2-yl)(4-methoxyphenyl)methanone] | – | 1 to 10 | < 0.1 | 1 to 10
4 | Cc1ccc(C(=O)c2cc3cc(C)n(CCN4CCOCC4)c3s2)c(Cl)c1 [Compound 86, (2-Chloro-4-methylphenyl)(5-methyl-6-(2-morpholinoethyl)-6H-thieno[2,3-b]pyrrol-2-yl)methanone] | – | 0.1 to 1 | 1 to 10 | 1 to 10
5 | COc1ccc(C(=O)c2cc3cc(C)n(CCCN4CCOCC4)c3s2)cc1 [Compound 107, (4-Methoxyphenyl)(5-methyl-6-(3-morpholinopropyl)-6H-thieno[2,3-b]pyrrol-2-yl)methanone] | – | 0.1 to 1 | 0.1 to 1 | 0.1 to 1
6 | COc1ccc(C(=O)c2cc3cc(C)n(CCN4CCOCC4)c3s2)c(Cl)n1 [Compound 137, (2-chloro-6-methoxypyridinyl-3-yl)(5-methyl-6-(2-morpholinoethyl)-6H-thieno[2,3-b]pyrrol-2-yl)methanone] | – | 1 to 10 | 1 to 10 | 0.1 to 1
7 | COCCN(C)CCn1c(C)cc2cc(C(=O)c3ccc(OC)nc3)sc21 [Compound 157] | NS (NS means “Not Significant,” which means less than 30% agonist activity when compared to the positive control.) | 0.1 to 1 | > 10 | –
8 | COc1ccc(C(=O)c2cc3cc(C)n(CC(OC)OC)c3s2)cn1 [Compound 161, (6-(2,2-dimethoxyethyl)-5-methyl-6H-thieno[2,3-b]pyrrol-2-yl)(6-methoxypyridin-3-yl)methanone] | NS (NS means “Not Significant,” which means less than 30% agonist activity when compared to the positive control.) | 0.1 to 1 | > 10 | –
9 | Cc1cc2cc(C(=O)c3ccc(O)cc3F)sc2n1CCN1CCOCC1 [Compound 165, (2-fluoro-4-hydroxyphenyl)(5-methyl-6-(2-morpholinoethyl)-6H-thieno[2,3-b]pyrrol-2-yl)methanone] | – | 0.1 to 1 | > 10 | 0.1 to 1
10 | COc1ccc(C(=O)c2cc3cc(C)n(CC4CCC(F)(F)CC4)c3s2)cn1 [Compound 170, (6-((4,4-difluorocyclohexyl)methyl)-5-methyl-6H-thieno[2,3-b]pyrrol-2-yl)(6-methoxypyridin-3-yl)methanone] | – | < 0.1 | < 0.1 | < 0.1
